Experimental data: patent US20240417393A1, “CERTAIN 2,5-DIAZABICYCLO[4.2.0]OCTANES AS GLP-1 RECEPTOR MODULATORS” (ASTRAZENECA AB, priority 2021, published 2024)

Columns and labels:
[1] = target: T1, human GLP-1R receptor (Homo sapiens, UniProt P43220, L260F); experiment: CHOK1 GLP-1R cAMP Assay (HTRF); format: cell-based; conditions: CHO-K1 cells stably expressing human GLP-1R (Leu260Phe variant), 20 min at rt
T1 construct: expressed in transfected cells; host or cells: CHO-K1 (ATCC CCL-61)
Experimental: A cell line stably expressing the human GLP-1R receptor (NM_002062.5, including the naturally-occurring variant Leu260Phe) in a CHO-K1 (ATCC® CCL-61™) was used for assay.
GLP-1 receptor mediated agonist activity was determined in a cell-based assay measuring cyclic adenosine monophosphate (cAMP) levels in cells using Homogeneous Time-Resolved Fluorescence (HTRF) cAMP detection kit (CisBio catalog #62AM4PEC, cAMP Gs Dynamic range kit). The cAMP detection method is based on a competitive immunoassay, in which cAMP produced by the cells and cAMP labeled with the dye d2 compete for binding to a Europium-Cryptate-labeled anti-cAMP antibody. The specific HTRF signal is inversely proportional to the concentration of cAMP.
Compounds were added to individual well in 384 well-assay plates (Greiner #784076) using an Echo (LabCyte) dispenser from 10 mM stocks. Varying concentration of compounds were added to wells, and DMSO was used to normalize each well to a volume of 100 nL. A dose response curve of GLP-1(7-36)NH2 (Bachem H-6795) was included in each run. 5 μL of cAMP concentration response standards are applied in specified wells in the assay plates. Cryo-preserved cells are thawed and resuspended in assay buffer pre-heated to 37° C. (20 mM 2-[4-(2-hydroxyethyl)piperazin-1-yl]ethanesulfonic acid (HEPES) pH 7.4, 1× Hank's Balanced Salt Solution (HBSS, Life Technologies #14065) supplemented with 0.1% (w/v) bovine serum albumin (Sigma, A-7030)). Cells were centrifuged at 250*g for 5 min at rt, and resuspended in room tempered assay buffer to a final density of 0.16*10^6 cell/mL, to deliver 800 cells/well. 5 μL of assay buffer with 1 mM 3-isobutyl-1-methylxanthin (IBMX; Sigma cat I-7018) was dispensed per well in assay plates using a multidrop combi (Thermo Scientific) subsequently 5 μL of cell suspension was distributed to relevant wells in the assay using a multidrop dispenser. Assay plates were incubated 20 min at rt.
Detection reagents, Europium-Cryptate-labeled anti-cAMP antibody and cAMP labeled with the dye d2, are diluted in lysis buffer, provided by the manufacturer. 5 μL of each detection reagent is supplemented to each assay well using a multidrop dispenser. Assay plates are incubated in the dark for at least one h. The HTRF signal is measured using the HTRF module (excitation: 337 nm, emission A: 665 nm and emission B: 620 nm) in Pherastar FSX (BMG Labtech).
Raw data were converted to pM cAMP using the cAMP standard curve included in each run. Converted data were further analyzed in Genedata Screener (Genedata) and EC50 determinations were made from agonist dose-response curves analyzed with a curve fitting is program using a 4-parameter logistic dose response equation (Equation y=A+((B-A)/1+((C/x)^D))) where A is no stimulation, B is full stimulation, C is the EC50 and D is the Hill slope). The percent effect was determined relative to a saturating concentration of a full GLP-1R agonist (GLP-1(7-36)NH2 has 100% effect in this assay setup).

[2] = target: T2, GLP-1R in a pancreatic insulinoma cell line (EndoC-PH1) (Homo sapiens, UniProt P43220); experiment: EndoC cAMP Accumulation Assay (HTRF); format: cell-based; conditions: EndoC-PH1 human pancreatic beta cell line, endogenous GLP-1R, 30 min at rt
T2 construct: host or cells: EndoC-βH1 human pancreatic beta cell line
From the text: EndoC cAMP Accumulation Assay
A HTRF cAMP assay (cAMP Gs dynamic kit; CisoBio Cat #62AM4PEJ) was used to identify agonists of GLP-1R in a pancreatic insulinoma cell line (EndoC-PH1). […] EndoC-PHlcells have detectable GLP-1R messenger ribonucleic acid (mRNA) as detected by quantitative polymerase chain reaction (qPCR). […] The EndoC-PH1 cell line is a valid model of human beta cells and applicable for screenings to identify novel drug target candidates (Mol. Metab., 2018, 8, 144-157). CisBio HTRF cAMP kits are based on a competitive immunoassay using cryptate-labelled anti-cAMP antibody and d2-labeled cAMP. The detection kit is intended for the direct is quantitative determination of cAMP. The specific signal (i.e. energy transfer) is inversely proportional to the concentration of cAMP in the standard or sample. Test compounds (10 mM in DMSO) were diluted into assay buffer (HBSS (Sigma #H8264) supplemented with 25 mM HEPES (Gibco #15630, pH 7.4), 0.1% BSA (Sigma #A3059) and 0.5 mM IBMX (Sigma #I7018) included fresh on the day of the assay) into 96 well U-bottom plates (Greiner #650201). Diluted compounds were transferred to ECHO source polypropelene plates (Labcyte #P-05525) and dose response curves were dispensed acoustically using ECHO 550 into black shallow-well u-bottom 384-well HTRF Assay Plates (Corning 4514). Cryovials of EndoC-H1 (supplied at 1×10e^7 cells/vial) were used directly for screening. The cryovials and were removed from N2(1) and thawed rapidly in a 37° C. water bath. The cells were resuspended in assay buffer and centrifuged at 300 g for 5 min. Cells were resuspended in assay buffer at the appropriate concentration, typically at 12e5 cells per mL (3000 cells per well, dependent on cell batch) and 2.5 μL diluted cells were added to all wells of destination plate by Multidrop combi reagent dispenser (Thermofisher). The plates were incubated at rt for 30 min. The assay was stopped by adding 2.5 μL anti-cAMP cryptate solution to all wells and 2.5 μL cAMP-d2 solution (both diluted 1:20 in lysis buffer) to columns 1-22 by Combi drop. A volume of 2.5 μL cAMP-d2 solution was added to wells E23 to P24 and 2.5 μL lysis buffer added to wells A23 to D24 by multichannel pipette. The plates were incubated at rt for 1 h and read on an Envision plate reader using excitation wavelength of 320 nm and emission of […] and 660 nm.
Raw data from Envision is converted to % DeltaF according to the manufacturer's instructions. Dose response curves are analysed via 4-Parameter Logistical Analysis and assay plate Z’ values obtained. Samples are graphed as percentage (%) activation plots compared to […] with assay window defined by negative control as basal cell is cAMP levels and positive control are defined by maximum GIP (82.5 nM) signal. GLP-1 (7-36 amide, Bachem H-6795) dose response curve was included on all plates.

T1 sequence (P43220 24-463 L260F): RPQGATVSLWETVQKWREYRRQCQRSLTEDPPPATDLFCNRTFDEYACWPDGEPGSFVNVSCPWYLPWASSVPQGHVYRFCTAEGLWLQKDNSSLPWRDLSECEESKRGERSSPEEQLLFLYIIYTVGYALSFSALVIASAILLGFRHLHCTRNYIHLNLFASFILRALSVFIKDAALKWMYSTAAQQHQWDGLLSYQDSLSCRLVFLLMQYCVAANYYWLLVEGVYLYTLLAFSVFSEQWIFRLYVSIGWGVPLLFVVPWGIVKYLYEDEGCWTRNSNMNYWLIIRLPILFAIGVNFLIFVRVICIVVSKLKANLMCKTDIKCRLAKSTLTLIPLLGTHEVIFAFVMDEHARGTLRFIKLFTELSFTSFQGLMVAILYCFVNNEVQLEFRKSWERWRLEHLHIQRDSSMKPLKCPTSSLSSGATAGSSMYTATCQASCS
T2 sequence (P43220 24-463): as the sequence (P43220 24-463 L260F) above, with F237L counted along it

Row | Structure (SMILES) | EC50 [1] | EC50 [2]
1 | C[C@]1(c2ccc(Cl)cc2F)Oc2cccc(N3CCN(Cc4nc5ccc(C(=O)O)cc5n4C[C@@H]4CCO4)[C@H]4CC[C@@H]43)c2O1 (single isomer, unassigned) [Example 21b, 2-(((1R*,6R*)-5-((R*)-2-(4-Chloro-2-fluorophenyl)-2-methylbenzo[d][1,3]dioxol-4-yl)-2,5-diazabicyclo[4.2.0]octan-2-yl)methyl)-1-(((S)-oxetan-2-yl)methyl)-1H-benzo[d]imidazole-6-carboxylic acid] | 340 nM | 2200 nM
2 | C[C@]1(c2ccc(Cl)cc2F)Oc2cccc(N3CCN(Cc4nc5c(F)cc(C(=O)O)cc5n4C[C@@H]4CCO4)[C@H]4CC[C@H]43)c2O1 (single isomer, unassigned) [Example 9c, 2-(((1R*,6S*)-5-((R*)-2-(4-Chloro-2-fluorophenyl)-2-methylbenzo[d][1,3]dioxol-4-yl)-2,5-diazabicyclo[4.2.0]octan-2-yl)methyl)-4-fluoro-1-(((S)-oxetan-2-yl)methyl)-1H-benzo[d]imidazole-6-carboxylic acid] | 28 nM | 74 nM
3 | C[C@]1(c2ccc(Cl)cn2)Oc2cccc(N3CCN(Cc4nc5ccc(C(=O)O)cc5n4C[C@@H]4CCO4)[C@H]4CC[C@H]43)c2O1 (single isomer, unassigned) [Example 5c] | 180 nM | 1800 nM
4 | C[C@]1(c2ccc(Cl)cn2)Oc2cccc(N3CCN(Cc4nc5ccc(C(=O)O)cc5n4C[C@@H]4CCO4)[C@H]4CC[C@H]43)c2O1 (single isomer, unassigned) [Example 5d, 2-((1R*,6S*)-5-(R*)-2-(5-Chloropyridin-2-yl)-2-methylbenzo[d][1,3]dioxol-4-yl)-2,5-diazabicyclo[4.2.0]octan-2-yl)methyl)-1-(((S)-oxetan-2-yl)methyl)-1H-benzo[d]imidazole-6-carboxylic acid] | 4.7 nM | 8.6 nM
5 | C[C@]1(c2ccc(Cl)cn2)Oc2cccc(N3CCN(Cc4nc5ccc(C(=O)O)cc5n4C[C@@H]4CCO4)[C@H]4CC[C@@H]43)c2O1 (single isomer, unassigned) [Example 22a, 2-(((1R*,6R*)-5-((R*)-2-(5-Chloropyridin-2-yl)-2-methylbenzo[d][1,3]dioxol-4-yl)-2,5-diazabicyclo[4.2.0]octan-2-yl)methyl)-1-(((S)-oxetan-2-yl)methyl)-1H-benzo[d]imidazole-6-carboxylic acid] | 29 nM | 49 nM
6 | COc1cc(C(=O)O)cc2c1nc(CN1CCN(c3cccc4c3O[C@@](C)(c3ccc(Cl)cn3)O4)[C@H]3CC[C@@H]31)n2C[C@@H]1CCCO1 (single isomer, unassigned) [Example 7c, 2-(((1R*,6R*)-5-((R*)-2-(5-Chloropyridin-2-yl)-2-methylbenzo[d][1,3]dioxol-4-yl)-2,5-diazabicyclo[4.2.0]octan-2-yl)methyl)-4-methoxy-1-(((S)-tetrahydrofuran-2-yl)methyl)-1H-benzo[d]imidazole-6-carboxylic acid] | 110 nM | 32 nM
7 | COc1cc(C(=O)O)cc2c1nc(CN1CCN(c3cccc4c3O[C@@](C)(c3ccc(Cl)cn3)O4)[C@@H]3CC[C@@H]31)n2C[C@@H]1CCCO1 (single isomer, unassigned) [Example 8d] | 93 nM | 370 nM
8 | COc1cc(C(=O)O)cc2c1nc(CN1CCN(c3cccc4c3O[C@@](C)(c3ccc(Cl)cn3)O4)[C@H]3CC[C@@H]31)n2C[C@@H]1CCCO1 (single isomer, unassigned) [Example 7a, 2-(((1R*,6R*)-5-((R*)-2-(5-Chloropyridin-2-yl)-2-methylbenzo[d][1,3]dioxol-4-yl)-2,5-diazabicyclo[4.2.0]octan-2-yl)methyl)-4-methoxy-1-(((S)-tetrahydrofuran-2-yl)methyl)-1H-benzo[d]imidazole-6-carboxylic acid] | 27 nM | 72 nM

The remaining lines, values ahead:

Row | EC50 [1] | EC50 [2] | Structure (SMILES)
9 | 220 nM | 4400 nM | C[C@]1(c2ccc(Cl)cn2)Oc2cccc(N3CCN(Cc4nc5c(Cl)cc(C(=O)O)cc5n4C[C@@H]4CCO4)[C@H]4CC[C@@H]43)c2O1 (single isomer, unassigned) [Example 3a, 4-Chloro-2-(((1R*,6R*)-5-((R*)-2-(5-chloropyridin-2-yl)-2-methylbenzo[d][1,3]dioxol-4-yl)-2,5-diazabicyclo[4.2.0]octan-2-yl)methyl)-1-(((S)-oxetan-2-yl)methyl)-1H-benzo[d]imidazole-6-carboxylic acid]
10 | 140 nM | 360 nM | C[C@]1(c2ccc(Cl)cn2)Oc2cccc(N3CCN(Cc4nc5c(F)cc(C(=O)O)cc5n4CC4(CC#N)CC4)[C@H]4CC[C@@H]43)c2O1 (single isomer, unassigned) [Example 23c]
11 | 1.1 nM | 2.8 nM | C[C@]1(c2ccc(Cl)cn2)Oc2cccc(N3CCN(Cc4nc5c(F)cc(C(=O)O)cc5n4CC4(CC#N)CC4)[C@H]4CC[C@@H]43)c2O1 (single isomer, unassigned) [Example 23a]
12 | 36 nM | 74 nM | COc1cc(C(=O)O)cc2c1nc(CN1CCN(c3cccc4c3O[C@@](C)(c3ccc(Cl)cn3)O4)[C@H]3CC[C@@H]31)n2CC1(C#N)CC1 (single isomer, unassigned) [Example 25d]
13 | 65 nM | 200 nM | COc1cc(C(=O)O)cc2c1nc(CN1CCN(c3cccc4c3O[C@@](C)(c3ccc(Cl)cn3)O4)[C@H]3CC[C@@H]31)n2CCOC1CC1 (relative stereo) [Example 27, rel-2-(((1R,6R)-5-((R)-2-(5-Chloropyridin-2-yl)-2-methylbenzo[d][1,3]dioxol-4-yl)-2,5-diazabicyclo[4.2.0]octan-2-yl)methyl)-1-(2-cyclopropoxvethyl)-4-methoxy-1H-benzo[d]imidazole-6-carboxylic acid]
